# Measurements as given in PubChem BioAssay (NCI).
#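 Growth conditions: 96-well plates. Treatment: test compound, 48 hours, 5 concentrations. Analysis: linear interpolation between bracketing concentrations; unreached endpoints set to highest concentration. The concentration for full growth arrest is given as TGI.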
# Legend:
# Experiment in all cases: DTP human tumour cell line panel, 48 h
# MALME-3M melanoma = system: MALME-3M melanoma
# K-562 leukemia = system: K-562 leukemia
# T-47D breast = system: T-47D breast
# TK-10 renal = system: TK-10 renal
# LOX IMVI melanoma = system: LOX IMVI melanoma
# HL-60(TB) leukemia = system: HL-60(TB) leukemia
# NCI-H522 lung = system: NCI-H522 lung
# HT29 colon = system: HT29 colon
# 786-0 renal = system: 786-0 renal
# M14 melanoma = system: M14 melanoma
# DU-145 prostate = system: DU-145 prostate
# SW-620 colon = system: SW-620 colon
# HCT-15 colon = system: HCT-15 colon
# HS 578T breast = system: HS 578T breast
# KM12 colon = system: KM12 colon
# SF-295 CNS = system: SF-295 CNS
# SNB-75 CNS = system: SNB-75 CNS
# NCI-H460 lung = system: NCI-H460 lung
# HOP-92 NSCLC = system: HOP-92 NSCLC
# SK-OV-3 ovarian = system: SK-OV-3 ovarian
# NCI/ADR-RES ovarian = system: NCI/ADR-RES ovarian
# UACC-62 melanoma = system: UACC-62 melanoma
# OVCAR-8 ovarian = system: OVCAR-8 ovarian
# U251 CNS = system: U251 CNS
# OVCAR-3 ovarian = system: OVCAR-3 ovarian
# SF-539 CNS = system: SF-539 CNS
# HOP-62 NSCLC = system: HOP-62 NSCLC
# MCF7 breast = system: MCF7 breast
# SF-268 CNS = system: SF-268 CNS
# MDA-MB-435 = system: MDA-MB-435
# NCI-H23 lung = system: NCI-H23 lung
# COLO 205 colon = system: COLO 205 colon
# SK-MEL-28 melanoma = system: SK-MEL-28 melanoma
# UACC-257 melanoma = system: UACC-257 melanoma
# PC-3 prostate = system: PC-3 prostate
# SN12C renal = system: SN12C renal
# SNB-19 CNS = system: SNB-19 CNS
# NCI-H226 lung = system: NCI-H226 lung
# SR leukemia = system: SR leukemia
# EKVX NSCLC = system: EKVX NSCLC
# ACHN renal = system: ACHN renal
# HCC-2998 colon = system: HCC-2998 colon
# HCT-116 colon = system: HCT-116 colon
# OVCAR-5 ovarian = system: OVCAR-5 ovarian
# A549 NSCLC = system: A549 NSCLC
# MDA-N = system: MDA-N
# SK-MEL-2 melanoma = system: SK-MEL-2 melanoma
# CAKI-1 renal = system: CAKI-1 renal
# OVCAR-4 ovarian = system: OVCAR-4 ovarian
# RPMI-8226 leukemia = system: RPMI-8226 leukemia
# UO-31 renal = system: UO-31 renal
# SK-MEL-5 melanoma = system: SK-MEL-5 melanoma
# RXF 393 renal = system: RXF 393 renal
# MDA-MB-231 breast = system: MDA-MB-231 breast
# CCRF-CEM leukemia = system: CCRF-CEM leukemia
# BT-549 breast = system: BT-549 breast
# IGROV1 ovarian = system: IGROV1 ovarian
# A498 renal = system: A498 renal
# MOLT-4 leukemia = system: MOLT-4 leukemia
structure (smiles),measurement,setting,value
N#CCCC1(CCC#N)CCCCCCCCC(CCC#N)(CCC#N)C(=O)C1=O,TGI,MALME-3M melanoma,> 100 µM
same,TGI,K-562 leukemia,> 100 µM
same,TGI,T-47D breast,> 100 µM
same,TGI,TK-10 renal,> 100 µM
same,TGI,LOX IMVI melanoma,> 100 µM
same,TGI,HL-60(TB) leukemia,> 100 µM
same,TGI,NCI-H522 lung,88.2 µM
same,TGI,HT29 colon,> 100 µM
same,TGI,786-0 renal,> 100 µM
same,TGI,M14 melanoma,> 100 µM
same,TGI,DU-145 prostate,> 100 µM
same,TGI,SW-620 colon,> 100 µM
same,TGI,HCT-15 colon,> 100 µM
same,TGI,HS 578T breast,> 100 µM
same,TGI,KM12 colon,> 100 µM
same,TGI,SF-295 CNS,> 100 µM
same,TGI,SNB-75 CNS,> 100 µM
same,TGI,NCI-H460 lung,> 100 µM
same,TGI,HOP-92 NSCLC,> 100 µM
same,TGI,SK-OV-3 ovarian,> 100 µM
same,TGI,NCI/ADR-RES ovarian,> 100 µM
same,TGI,UACC-62 melanoma,> 100 µM
same,TGI,OVCAR-8 ovarian,> 100 µM
same,TGI,U251 CNS,> 100 µM
same,TGI,OVCAR-3 ovarian,> 100 µM
same,TGI,SF-539 CNS,> 100 µM
same,TGI,HOP-62 NSCLC,> 100 µM
same,TGI,MCF7 breast,> 100 µM
same,TGI,SF-268 CNS,> 100 µM
same,TGI,MDA-MB-435,> 100 µM
same,TGI,NCI-H23 lung,> 100 µM
same,TGI,COLO 205 colon,> 100 µM
same,TGI,SK-MEL-28 melanoma,> 100 µM
same,TGI,UACC-257 melanoma,> 100 µM
same,TGI,PC-3 prostate,> 100 µM
same,TGI,SN12C renal,> 100 µM
same,TGI,SNB-19 CNS,> 100 µM
same,TGI,NCI-H226 lung,> 100 µM
same,TGI,SR leukemia,> 100 µM
same,TGI,EKVX NSCLC,> 100 µM
same,TGI,ACHN renal,> 100 µM
same,TGI,HCC-2998 colon,> 100 µM
same,TGI,HCT-116 colon,> 100 µM
same,TGI,OVCAR-5 ovarian,> 100 µM
same,TGI,A549 NSCLC,> 100 µM
same,TGI,MDA-N,> 100 µM
same,TGI,SK-MEL-2 melanoma,> 100 µM
same,TGI,CAKI-1 renal,> 100 µM
same,TGI,OVCAR-4 ovarian,> 100 µM
O=C1/C(=C/c2cccc(Br)c2)CSC/C1=C\c1cccc(Br)c1,TGI,MALME-3M melanoma,4.43 µM
same,TGI,RPMI-8226 leukemia,6.42 µM
same,TGI,K-562 leukemia,6.74 µM
same,TGI,T-47D breast,21.1 µM
same,TGI,TK-10 renal,16.8 µM
same,TGI,LOX IMVI melanoma,4.82 µM
same,TGI,NCI-H522 lung,4.14 µM
same,TGI,HT29 colon,5.67 µM
same,TGI,786-0 renal,11.8 µM
same,TGI,M14 melanoma,6.14 µM
same,TGI,DU-145 prostate,24.3 µM
same,TGI,SW-620 colon,11.2 µM
same,TGI,HCT-15 colon,15.4 µM
same,TGI,KM12 colon,4.43 µM
same,TGI,SF-295 CNS,5.14 µM
same,TGI,NCI-H460 lung,7.26 µM
same,TGI,HOP-92 NSCLC,7.43 µM
same,TGI,UO-31 renal,3.71 µM
same,TGI,SK-OV-3 ovarian,42 µM
same,TGI,NCI/ADR-RES ovarian,25.5 µM
same,TGI,UACC-62 melanoma,3.14 µM
same,TGI,OVCAR-8 ovarian,9.52 µM
same,TGI,U251 CNS,3.53 µM
same,TGI,OVCAR-3 ovarian,9.98 µM
same,TGI,SK-MEL-5 melanoma,3.59 µM
same,TGI,RXF 393 renal,3.79 µM
same,TGI,SF-539 CNS,13.6 µM
same,TGI,HOP-62 NSCLC,6.74 µM
same,TGI,MCF7 breast,20.5 µM
same,TGI,SF-268 CNS,24.2 µM
same,TGI,NCI-H23 lung,9.03 µM
same,TGI,COLO 205 colon,8.53 µM
same,TGI,SK-MEL-28 melanoma,7.12 µM
same,TGI,UACC-257 melanoma,5.9 µM
same,TGI,PC-3 prostate,10.4 µM
same,TGI,SN12C renal,5.22 µM
same,TGI,SNB-19 CNS,10.6 µM
same,TGI,SR leukemia,> 100 µM
same,TGI,EKVX NSCLC,19.9 µM
same,TGI,MDA-MB-231 breast,48.9 µM
same,TGI,ACHN renal,9.88 µM
same,TGI,HCC-2998 colon,3.3 µM
same,TGI,HCT-116 colon,4.33 µM
same,TGI,OVCAR-5 ovarian,15.5 µM
same,TGI,A549 NSCLC,41.5 µM
same,TGI,CCRF-CEM leukemia,6.45 µM
same,TGI,BT-549 breast,4.47 µM
same,TGI,MDA-N,6.98 µM
same,TGI,IGROV1 ovarian,7.11 µM
same,TGI,SK-MEL-2 melanoma,12 µM
same,TGI,CAKI-1 renal,6.06 µM
same,TGI,OVCAR-4 ovarian,13.1 µM
CC1(CCCO)CCCCCCCCCC(C)(CCCO)C1=O (configuration not stated),TGI,MALME-3M melanoma,> 100 µM
same,TGI,RPMI-8226 leukemia,> 100 µM
same,TGI,K-562 leukemia,> 100 µM
same,TGI,T-47D breast,> 100 µM
same,TGI,LOX IMVI melanoma,> 100 µM
same,TGI,HL-60(TB) leukemia,> 100 µM
same,TGI,NCI-H522 lung,> 100 µM
same,TGI,HT29 colon,> 100 µM
same,TGI,786-0 renal,> 100 µM
same,TGI,M14 melanoma,> 100 µM
same,TGI,A498 renal,> 100 µM
same,TGI,DU-145 prostate,> 100 µM
same,TGI,SW-620 colon,> 100 µM
same,TGI,HCT-15 colon,> 100 µM
same,TGI,HS 578T breast,> 100 µM
same,TGI,KM12 colon,> 100 µM
same,TGI,SF-295 CNS,> 100 µM
same,TGI,SNB-75 CNS,> 100 µM
same,TGI,NCI-H460 lung,> 100 µM
same,TGI,HOP-92 NSCLC,> 100 µM
same,TGI,UO-31 renal,> 100 µM
same,TGI,SK-OV-3 ovarian,> 100 µM
same,TGI,NCI/ADR-RES ovarian,> 100 µM
same,TGI,UACC-62 melanoma,> 100 µM
same,TGI,OVCAR-8 ovarian,> 100 µM
same,TGI,U251 CNS,> 100 µM
same,TGI,OVCAR-3 ovarian,> 100 µM
same,TGI,SK-MEL-5 melanoma,> 100 µM
same,TGI,RXF 393 renal,> 100 µM
same,TGI,HOP-62 NSCLC,> 100 µM
same,TGI,MCF7 breast,> 100 µM
same,TGI,SF-268 CNS,> 100 µM
same,TGI,MDA-MB-435,> 100 µM
same,TGI,NCI-H23 lung,> 100 µM
same,TGI,COLO 205 colon,> 100 µM
same,TGI,SK-MEL-28 melanoma,> 100 µM
same,TGI,UACC-257 melanoma,> 100 µM
same,TGI,PC-3 prostate,> 100 µM
same,TGI,SN12C renal,> 100 µM
same,TGI,SNB-19 CNS,> 100 µM
same,TGI,NCI-H226 lung,> 100 µM
same,TGI,EKVX NSCLC,> 100 µM
same,TGI,MDA-MB-231 breast,> 100 µM
same,TGI,ACHN renal,> 100 µM
same,TGI,HCC-2998 colon,> 100 µM
same,TGI,HCT-116 colon,> 100 µM
same,TGI,OVCAR-5 ovarian,> 100 µM
same,TGI,A549 NSCLC,> 100 µM
same,TGI,CCRF-CEM leukemia,> 100 µM
same,TGI,BT-549 breast,> 100 µM
same,TGI,MOLT-4 leukemia,> 100 µM
same,TGI,MDA-N,> 100 µM
same,TGI,IGROV1 ovarian,> 100 µM
same,TGI,SK-MEL-2 melanoma,> 100 µM
same,TGI,CAKI-1 renal,> 100 µM
same,TGI,OVCAR-4 ovarian,> 100 µM
